From US8318940B2, “Naphthyridin-2 (1 H)-one compounds useful as antibacterials” (Glaxo Group Limited, priority 2009, dated 2012)

Tested on: Mycobacterium tuberculosis H37Rv
Assay: Mycobacterium tuberculosis H37Rv inhibition assay (MIC, resazurin)
Format: cell-based
Details: ATCC 25618 / H37Rv, H37Rv strain (ATCC25618), Middlebrook 7H9, 37° C. six days, resazurin fluorescence after 48 hours

| SMILES | MIC [mg/L] |
| --- | --- |
| Cl.O=c1ccc2ncc(F)cc2n1CCN1CCC(NCc2cnc(CO)c(Cl)c2)CC1 [Example 2, 1-{2-[4-({[5-chloro-6-(hydroxymethyl)-3-pyridinyl]methyl}amino)-1-piperidinyl]ethyl}-7-fluoro-1,5-naphthyridin-2(1H)-one hydrochloride] | ≤ 0.3 |
| COc1cnc2ccc(=O)n(CCN3CCC(NCc4cnc(CO)c(Cl)c4)CC3)c2c1 [Example 5, 1-{2-[4-({[5-chloro-6-(hydroxymethyl)-3-pyridinyl]methyl}amino)-1-piperidinyl]ethyl}-7-(methyloxy)-1,5-naphthyridin-2(1H)-one] | ≤ 0.3 |
| Cl.O=c1ccc2ncc(F)cc2n1CCN1CC[C@H](NCc2cnc(CO)c(Cl)c2)[C@H](O)C1 [Example 4, 1-{2-[(3R,4S)-4-({[5-chloro-6-(hydroxymethyl)-3-pyridinyl]methyl}amino)-3-hydroxy-1-piperidinyl]ethyl}-7-fluoro-1,5-naphthyridin-2(1H)-one hydrochloride] | ≤ 0.3 |
| O=c1ccc2ncc(F)cc2n1CCN1CCC(NCc2cnc(CO)c(Br)c2)CC1 [Example 6, 1-{2-[4-({[5-bromo-6-(hydroxymethyl)-3-pyridinyl]methyl}amino)-1-piperidinyl]ethyl}-7-fluoro-1,5-naphthyridin-2(1H)-one] | ≤ 0.3 |
| O=c1ccc2ncc(F)cc2n1CCN1CC[C@H](NCc2cnc(CO)c(Cl)c2)[C@H](O)C1 [Example 3, 1-{2-[(3R,4S)-4-({[5-chloro-6-(hydroxymethyl)-3-pyridinyl]methyl}amino)-3-hydroxy-1-piperidinyl]ethyl}-7-fluoro-1,5-naphthyridin-2(1H)-one] | ≤ 0.3 |
| O=c1ccc2ncc(F)cc2n1CCN1CCC(NCc2cnc(CO)c(Cl)c2)CC1 [Example 1, 1-{2-[4-({[5-chloro-6-(hydroxymethyl)-3-pyridinyl]methyl}amino)-1-piperidinyl]ethyl}-7-fluoro-1,5-naphthyridin-2(1H)-one] | ≤ 0.3 |
